Source: a melting point compilation (Tetko et al.; mined from patent text by program, amines drawn as free bases though some values may be those of a salt)

SMILES | melting point
N#Cc1cc(C(F)(F)F)[nH]c1-c1ccccc1Cl | 151 to 152 °C
CCCc1nn(-c2ccc(C(F)(F)F)cn2)cc1CCCOc1cc(CC(=O)O)ccc1F | 88 to 89 °C
CC(=O)Nc1cccn(CC(=O)NC(C(=O)C(F)(F)F)C(C)C)c1=O (stereo unspecified) | 76 to 80 °C
Cc1ccccc1C(=O)CN1C(=O)C(NC(=O)Nc2cccc(-c3nnn[nH]3)c2)N=C(c2ccccc2F)c2cccc(C)c21 (stereo unspecified) | 216 to 220 °C
O=C(O)Cn1c(=O)n2n(c1=O)C(C(=O)O)CCC2 (stereo unspecified) | 189 to 192 °C
CCCCc1sc2ccc([N+](=O)[O-])cc2c1C(=O)c1ccc(OCCCN(CCCC)CCCC)cc1 | 88 °C
CCOC(=O)c1cnn2c1c(OCC)nc1ccccc12 | 88 to 90 °C
c1cc(CNc2nccc3ccccc23)cc(Nc2nnc3c4c(cccc24)-c2ccccc2-3)c1 | 149 to 152 °C
CNC(=O)NCCn1c(-c2ccc(CN3CCOCC3)cc2C)csc1=Nc1ccc(F)c(C)c1 | 130 to 135 °C
COc1cc(OC)nc(C(=O)c2nccc(-c3ccccc3)c2C(=O)OCc2ccccc2)n1 | 124 to 126 °C
CCC(CC)Sc1cc2c(cc1Cl)N=C(C(N)=O)NS2(=O)=O | 287 to 289 °C
Cc1ccc(-c2ccc3c(c2)C=C(S(=O)(=O)Cl)CCO3)cc1 | 162 to 166 °C
CC(Cc1ccc(Oc2cc(N3CCN(Cc4ccccc4)CC3)ncn2)cc1)(Oc1ccccc1)C(=O)O (stereo unspecified) | 107 to 109 °C
CCCN(CCC)C(=O)CNc1cc(C)nc(-c2ccccc2)n1 | 107 to 108 °C
Nc1ccc2[nH]c(-c3ccccc3)cc2c1 | 220 °C
O=C1CCN(CCCN2c3cccc4cccc(c34)S2(=O)=O)CC1 | 108 °C
CCOC(=O)c1nnc2n1CC(=O)N(C)c1ccc(Cl)cc1-2 | 201 to 202 °C
CC(C)[C@H](C[C@H](O)[C@H](C)NC(=O)OC(C)(C)C)C(=O)NCCN | 55 to 62 °C
COCCNC(=O)c1n[nH]c2c(=O)[nH]c3cc(Cl)ccc3c(=O)c12 | 287 to 291 °C
COc1ccc(-n2ncc(C(=O)Nc3ccc(N4CCC(N5CCOCC5)CC4)c(C#N)c3)c2C)cc1 | 238 °C
COc1cc(-n2c(OC)nc(C(F)(F)C(F)(F)F)cc2=O)c(F)cc1Cl | 123 to 125 °C
COc1cc(C#N)ccc1C=O | 112 to 114 °C
CC(C)(C)NS(=O)(=O)c1cc2c(s1)S(=O)(=O)NCC2=O | 170 to 172 °C
O=c1ccn(-c2cccc(C(F)(F)F)c2)nc1-c1cn(C(c2ccccc2)(c2ccccc2)c2ccccc2)nc1-c1ccccc1 | 216 to 218 °C

SMILES | melting point
COc1ccc2ncc([N+](=O)[O-])c(Nc3ccccc3Cl)c2c1 | 163 to 165 °C
Nc1ncnc2c1c(-c1cccnc1)nn2Cc1oc2ccccc2c(=O)c1-c1ccccc1 | 253 to 255 °C
CC(C)CCCC(C)C1CCC2=C3C(=O)CC4C(C)(C)C(OC(=O)c5ccccc5)CCC4(C)C3CCC21C (stereo unspecified) | 189 to 190 °C
CSc1ccc(-c2nn(Cc3ccc(Cl)cc3Cl)c(=O)cc2-c2ccc(F)cc2)cc1 | 139 to 140 °C
CCOC(=O)/C=C/c1cnc(-c2ccc(O)c(C34CC5CC(CC(C5)C3)C4)c2)cn1 | 212 to 215 °C
CCCc1nc(C)c(C(=O)OCC)n1Cc1ccc2oc(-c3ccccc3NS(=O)(=O)C(F)(F)F)c(Br)c2c1 | 123 to 125 °C
O=C(NCCOC1CCCCO1)c1cc([N+](=O)[O-])cc([N+](=O)[O-])c1N(CCO)CCCl (stereo unspecified) | 106 to 108 °C
O=C(OCc1ccccc1)N1c2ccc(I)cc2CC1CO (stereo unspecified) | 110 to 111 °C
Cc1oc(-c2ccccc2)nc1COc1ccc(CCc2oc(-c3ccccc3)nc2CO)cc1 | 142 to 143 °C
CC(=O)NCC1CN(C(c2ccccc2)c2ccccc2)C1 | 117 to 119 °C
CC(C)(C)c1nc2cc(N3CCCC3)c(N)cc2s1 | 130 to 132 °C
CCCCCCCCNC1=CC(=O)c2c(OC)ccc(OC)c2C1=O | 81 to 82 °C
O=C(c1cc(C(F)(F)F)cc(C(F)(F)F)c1)N1CCN(C(=O)CN2CCC(O)(c3ccccc3)CC2)C(c2ccccc2)C1 (racemic) | 101 to 102 °C
O=C(NCc1cccnc1)c1ccc2n1Cc1ccccc1N(C(=O)/C=C/c1ccccc1)C2 | 175 °C
CC(=O)Nc1ccc(S(=O)(=O)Nc2nnc(CO)s2)cc1 | 101 to 102 °C
CCCC(=O)c1ccc(OCC(=O)OC)cc1 | 78 to 82 °C
CSc1ccc(-c2nc3[nH]nc(N)c3c(=O)n2-c2ccc(C)cc2)cc1 | > 285 °C
CCCCc1c(C(=O)c2ccc(O)cc2)n(C)c2ccc([N+](=O)[O-])cc12 | 172 °C
NC(=O)/C=C1/c2cc(F)ccc2C(O)C1O (stereo unspecified) | 212 to 220 °C
CCCCc1nc2cccc(C(=O)O)c2n1Cc1ccc(-c2ccccc2S(=O)(=O)NC(=O)NCC2CC2)cc1 | 234 to 236 °C
CC(C)(C)OC(=O)N1CCC[C@H]1CNc1ccc2ncc(I)n2n1 | 138 to 139 °C
COc1cc(N2CCCC2)ccc1CN1C(=O)C(C)(c2ccccc2Cl)c2cc(Cl)ccc21 (stereo unspecified) | 198 °C
COc1cccc(-c2ccc3nnn(Cc4ccc5ncccc5c4)c3n2)c1 | 133 to 135 °C
O=C(Nc1ccc2nc(CN3CCCCC3)ccc2c1)c1ccc(-c2ccccc2)cc1 | 186 to 188 °C

SMILES | melting point
COc1nc(C(F)(F)F)c(F)c(=O)n1-c1cc(C(=O)OC(C)C)c(Cl)cc1F | 104 to 106 °C
CC(=O)C(=[N+]=[N-])C(=O)NCCO | 69 to 70 °C
O=C(Nc1cccc(C(=NO)c2ccccc2)c1)c1ccn2c1CSC2c1cccnc1 (single isomer, unassigned; (+)) | 130 °C
CC(C)(C)C1=NN(c2ccc(S(=O)(=O)O)cc2)C(c2ccc(F)cc2)C1 (stereo unspecified) | 92.9 °C
Cc1nc(C)c(Cl)c(NCc2nccc(SCCCN3CCN(CC4CN(Cc5ccncc5)C(=O)O4)CC3)c2C)n1 (stereo unspecified) | 123 to 126 °C
COc1ccc(F)cc1C1CC(=O)CC(=O)C1 | 160 to 161 °C
NC(=O)c1cc(Cl)c(N[C@H]2CC[C@H](N)CC2)cc1F | 160 to 162 °C
COc1ccn2nc(-c3ccccc3)c(-c3ccc(=O)n(C4CCN(C)CC4)n3)c2c1 | 154 to 155 °C
COc1ccc(S(=O)(=O)C2(CCCC#Cc3ccc(C(=O)O)cc3C)SC(=O)NC2=O)cc1 (stereo unspecified) | 182 to 184 °C
CCN1c2ncc(CS(=O)(=O)c3ccccc3)cc2C(=O)N(C)c2ccc(Cl)nc21 | 96 to 98 °C
CCCNC(=S)NS(=O)(=O)c1cc2c(cc1OC)OC(C)(C)C(NC(=O)c1cc(Cl)ccc1OC)C2 (stereo unspecified) | 210 to 211 °C
BrCCCCOc1ccc2c(ccn2-c2ccc(Br)cc2)c1 | 80 to 81 °C
CC(Cc1ccc(Cl)c(Cl)c1)C(=O)Nc1cccc2ncccc12 (stereo unspecified) | 168 to 170 °C
O=C(O)CCN1CCN(c2ccc([N+](=O)[O-])cc2)CC1 | 250 to 252 °C
CCCCc1ncc(/C=C(\Cc2cccs2)C(=O)O)n1CCc1ccc(CC(=O)O)cc1 | 169 to 171 °C
Fc1ccc(C2=CCC(N3CCN(Cc4ccc5ccccc5n4)CC3)CC2)cc1 (stereo unspecified) | 111 to 114 °C
CCCCCCCCCOc1cc([N+](=O)[O-])ccc1N | 74 to 75 °C
Cc1ccc(O)c(C(C)(O)c2ccccc2)c1 (stereo unspecified) | 100 °C
COC(=O)c1c(C(F)F)nc(C(F)(F)F)c(C(=O)OC)c1CSC | 50.5 to 51.5 °C
CN1C[C@@H](C(=O)OC(C)(C)C)NC1=O | 135 to 136 °C
CCCCCCOc1ccc(-n2c(-c3ccc(Br)cc3)ccc2-c2ccc(Br)cc2)cc1 | 201 to 202 °C
C[C@]1(CN2CCC(c3ccccc3)CC2)Cn2cc([N+](=O)[O-])nc2O1 | 159 to 164 °C
CCCCCCCCCCCCc1c[nH]c(C(=O)NN)c1 | 137 to 140 °C
Cn1c(C(F)(F)F)cc(=O)n(-c2c(F)cc(Cl)c3nc(C(Br)Br)oc23)c1=O | 144 to 146 °C

SMILES | melting point
Cc1cc2oc(=O)c(NC(=O)Nc3ccc(F)cc3F)c(-c3ccccc3C)c2cc1C | 215 to 217 °C
CS(=O)(=O)N1CC(=O)c2ccsc2C1 | 120 °C
CC(=O)OCc1ccc(-c2ccccc2-c2nnnn2C(c2ccccc2)(c2ccccc2)c2ccccc2)cc1 | 117 to 119 °C
NC(=O)NCCS(=O)CC(O)CO (stereo unspecified) | 102 °C
CNC(=O)CNC(=O)c1cncc(F)c1 | 201 to 202 °C
O=C(OCc1ccccc1)C1=CCC2C(C(O)c3ccccc3)C(=O)N12 (stereo unspecified) | 124 °C
CN(C)S(=O)(=O)CS(=O)(=O)c1ccccc1 | 102 to 103 °C
O=C(Nc1nnn[nH]1)c1ccc2nc3ccsc3c(=O)n2c1 | 295 to 296 °C
OCC1(c2ccccc2)CCCC1 | 41 to 44 °C
CC(C)c1nn(-c2ccc(Cl)cn2)cc1CCCOc1ccccc1CC(=O)O | 141 to 142 °C
O=C(O)c1ccc(OCc2ccc(Cl)c(Cl)c2)cc1 | 222 to 223 °C
COc1ccc(C(=O)CO)cc1 | 101 to 103 °C
C1=C(c2csc3ccccc23)CCN(Cc2ccccc2)C1 | 90 °C
C=Cc1ccc(NC(=O)C(C)C)nc1 | 77 to 78 °C
COc1ccc(C(=O)NC(=O)Nc2ccc3c(c2)NC(=O)/C3=C/c2ccc(Cl)cc2)cc1 | 278 to 283 °C
COC(=O)CCCc1cc2nc(Cl)ccc2n1S(=O)(=O)c1ccccc1C(F)(F)F | 127 °C
Cc1nc2nccc(-c3cccnc3)n2n1 | 244 to 245 °C
CC(=O)c1c(C)[nH]c(-c2ccccc2C)c1N | 258 °C
CC1=CC(O)C(OC(=O)c2ccccc2Cl)C(C)(C)CC1=O (stereo unspecified) | 92.5 to 94 °C
COc1cc(Nc2c(C#N)cnc3cc(C#CCCN4CCNCC4)c(OC)cc23)c(Cl)cc1Cl | 188 to 190 °C
Cn1c(C(F)(F)F)ccc(-c2cc3[nH]c(=O)oc3cc2Cl)c1=O | 263 to 265 °C
Cc1c(C)c2c(c(C)c1Br)C(c1ccc(-c3ccccc3)cc1)CO2 (stereo unspecified) | 153 to 154 °C
C#Cc1ccc(=O)n(C(C)C)n1 | 103 to 104 °C
CC1(C)CC(=O)c2c(Nc3ccccc3)cn(-c3ccccn3)c2C1 | 135 to 138 °C
